Laboratory results: patent publication US8247569B2, “Cyclohexane derivative and pharmaceutical use thereof” (Toray Industries, Inc., priority 2008, dated 2012)
Like-named read-outs stand apart in the source and are kept apart here.

Columns and labels:
[1] = human liver microsomal stability assay; format: in vitro ADME; conditions: liver microsomes, pH 7.4, human liver microsomes 0.5 mg/mL, test compound 2 μmol/L, 37° C., 0-30 min, read-out: Human hepatic intrinsic clearance
Procedure: A liver microsomal stability assay, which is known to be an in vitro assay for evaluation of the stability of a compound against hepatic metabolism, was carried out to evaluate the stability of Compound (I) against human and mouse hepatic metabolism.
A total of 4 times of experiments were carried out for the combinations of the compound of Example 2-B or the compound of Comparative Example 29 as the test compound and human liver microsomes (Xenotech) or mouse liver microsomes (Xenotech) as the liver microsomes.
The respective reagents to be used for the liver microsomal stability assay were prepared as follows. That is, an appropriate amount of D-glucose 6-phosphate disodium salt (hereinafter referred to as G6P) was dissolved in distilled water at 100 mmol/L, to prepare 100 mmol/L aqueous G6P solution. In 5 mL of distilled water, 1000 units of Glucose 6-phosphate dehydrogenase from Yeast (hereinafter referred to as G6PDH) was dissolved, to prepare 200 units/mL aqueous G6PDH solution. An appropriate amount of MgCl2 was dissolved in distilled water at 100 mmol/L, to prepare 100 mmol/L aqueous MgCl2 solution. To 500 mL of 200 mmol/L aqueous K2HPO4 solution, 200 mmol/L aqueous KH2PO4 solution (about 130 mL) was added, and pH was adjusted to 7.4, to prepare 200 mmol/L KH2PO4/K2HPO4 buffer pH7.4 (hereinafter referred to as 200 mmol/L PB). β-nicotinamide-adenine dinucleotide phosphate, reduced form, tetrasodium salt (hereinafter referred to as (NADPH) was dissolved in distilled water such that the NADPH content becomes 10 mmol/L based on the purity (Purity NADPH) in the assay data described in the attached document, to prepare 10 mmol/L aqueous NADPH solution.
The liver microsomal stability assay was carried out according to the following procedure. First, the reagents listed in Table 12 (excluding microsomes) were mixed together to prepare a reaction mixture, and the reaction mixture was aliquoted in 130 μL volumes to 4 wells (which play roles as the wells for the 0-minute reaction, well for the 30-minute reaction, well for the 20-minute reaction and well for the 10-minute reaction, respectively) in a 96-well tube plate (BM Equipment Co., Ltd; hereinafter referred to as plate). The entire plate was covered with a silicone cap, and the plate was subjected to preincubation by being soaked in a water bath at 37° C. for 10 minutes.
After the preincubation, 3.75 μL of 20 mg/mL microsome suspension+16.25 μL of distilled water (20 μL in total) were added to the well for the 30-minute reaction, and the plate was covered with the cap, followed by soaking the plate in a water bath at 37° C. to initiate the reaction.
Ten minutes after the beginning of the reaction, 3.75 μL of 20 mg/mL microsome suspension+16.25 μL of distilled water (20 μL in total) were added to the well for the 20-minute reaction, and 20 minutes after the beginning of the reaction, 3.75 μL of 20 mg/mL microsome suspension+16.25 μL of distilled water (20 μL in total) were added to the well for the 10-minute reaction. The reaction was further continued by keeping the plate soaked in the water bath at 37° C.
Thirty minutes after the beginning of the reaction, the plate was removed from the water bath, and 120 μL of acetonitrile was added to each well, followed by covering the plate with the cap, stirring the plate for 10 seconds with Direct Mixer, and stopping the reaction by 10 minutes of ice cooling. After the reaction was stopped, 3.75 μL of 20 mg/mL microsome suspension+16.25 μL of distilled water (20 μL in total) were added to the well for the 0-minute reaction.
The reaction liquid in each well was centrifuged at 4° C. at 2500 rpm for 10 minutes, and the supernatant was transferred to a glass-coated microplate (TOMSIC Plate+) to begin LC/MS/MS analysis. The conditions for the LC/MS/MS analysis were as follows: […]

[2] = system: mouse sciatic nerve-ligation model (Seltzer model); experiment: mouse partial sciatic nerve ligation model (Seltzer model), von Frey test; conditions: for von Frey total score compared to the vehicle group: 1 hour after oral administration, doses as in Table 11; for von Frey Total Score Observed 1 Hour after Oral Administration (mean ± standard error), Compound-administered group: n = 5 to 6; for Score improvement rate: 1 hour after administration
[3] = pharmacokinetics (PK) test in mice; format: in vivo; conditions: mouse, plasma, female CD1 (ICR) mice, fasted
Procedure: Example 2-B or Comparative Example 29 was orally administered to mice, and the plasma level after the administration was measured to study the influence of improvement of the metabolic stability in liver microsomes on the change in the plasma level of the compound.
Female CD1 (ICR) mice of 7 weeks old which had been fed ad libitum with pellets (Oriental Yeast Co., Ltd.) and tap water were fasted for 17 hours before the administration. Feeding to the mice was begun again 4 hours after the administration.
In the case of intravenous administration of the solution, the animal was fixed in a holder, and the administration was carried out from the tail vein without anesthesia, using a syringe with an injection needle (25 G) attached thereto. In the case of oral administration, a syringe with a feeding needle attached thereto was used without anesthesia to force the solution into the stomach.
In terms of the mice to which the solution was intravenously administered, blood was collected a total of 8 times from the jugular vein or heart 5, 15 and 30 minutes and 1, 2, 4, 8 and 24 hours after the intravenous administration. In terms of the mice to which the solution was orally administered, blood was collected a total of 8 times from the jugular vein or heart 15, 30 and 45 minutes and 1, 2, 4, 8 and 24 hours after the oral administration. Further, from the jugular vein or heart of mice to which the solution was not administered, blood was collected as a blank. The collected blood was centrifuged at 4° C. at 12000 rpm for 5 minutes, and the obtained mouse plasma and blank plasma were stored at about −20° C. until preparation of samples for analysis. […]
From the results of the LC/MS/MS analysis, a calibration curve was prepared using Analysis 1.4 (Applied Biosystems). Based on the LC/MS/MS analysis and the prepared calibration curve, the concentration in each measurement sample was calculated using Analysis 1.4. For 3 times each of the experiments by intravenous administration and oral administration, the mean plasma level at each time point was calculated, and PK analysis was carried out using the obtained values (FIG. 6 and FIG. 7; each plot indicates the mean plasma level at each time point and its ±standard deviation; i.v. indicates test data by intravenous administration; and p.o. indicates test data by oral administration). The PK parameter was calculated using WinNonlin (Pharsight) by analysis independent of the models (intravenous administration: Model 201, oral administration: Model 200). Further, the bioavailability (BA) was calculated by normalization by dividing AUC0-24 hr from the time point of the intravenous administration or oral administration to the time point of the final blood collection by the dose.

[4] = system: mouse acetic acid writhing model; experiment: mouse acetic acid writhing model (nociceptive pain); format: in vivo; conditions: male ddY mice, oral administration 45 min before 0.6% acetic acid i.p., dose suppressing 50% of writhing responses vs vehicle group, vehicle A or B
[5] = evaluation of safety using mice, 5-day repeated oral administration; format: in vivo
Procedure: Crlj:CD1 (ICR) mice of 7 weeks old were subjected to repeated oral administration of Example 2-B or Comparative Example 29 for 5 days, and observation of clinical sign, measurement of body weight, hematology, blood chemistry, gross autopsy, measurement of organ weight and histopathology were carried out. Further, on Day 1 and Day 5 after the administration, TK measurement was carried out. Exposure to the respective compounds was confirmed.
The doses of Example 2-B were 0, 40, 200 and 1000 mg/kg/day, and those of Comparative Example 29 were 0, 30, 100 and 300 mg/kg/day. The solution to be administered was prepared using 0.5% aqueous methyl cellulose solution as a vehicle, such that the administration volume becomes 10 mL/kg.

SMILES | microsomal CLint at 2 μmol/L [1] [µL/min/mg] | von Frey total score compared to the vehicle group [2] | von Frey Total Score Observed 1 Hour after Oral Administration (mean ± standard error), Compound-administered group ([2]; dose 10 mg/kg oral, […]) | ED50 ([4]; Mus musculus, read-out: ED50) [mg/kg] | also measured
COc1ccc(-c2cc(C3(O)CCC(O)CC3)nn2-c2ccc(OC)cc2)cc1 (single isomer, unassigned) [Example 4-B, 1-(1,5-Bis(4-methoxyphenyl)-1H-pyrazol-3-yl)cyclohexan-cis-1,4-diol] | 8.69 | significantly improved | 2.2 ± 0.5 | – | –
CCc1ccc(-c2cc(C3(O)CCC(O)CC3)nn2-c2ccc(OC)cc2)cc1 (stereo not drawn) [Example 28] | 3.19 | – | – | – | –
COc1ccc(-n2nc(C3(O)CCC(O)CC3)cc2-c2ccc(C)cc2)cc1 (stereo not drawn) [Example 2-B, 1-(1-(4-methoxyphenyl)-5-(p-tolyl)-1H-pyrazol-3-yl)cyclohexane-cis-1,4-diol] | – | – | – | – | clearance ([3]; intravenous, read-out: total body clearance (converted)): 16.2 mL/min/kg; bioavailability ([3]; oral vs intravenous administration, from dose-normalized AUC0-24 hr, read-out: bioavailability (BA)): 88%; ED50 [4]: 1.40 mg/kg; no-observed-adverse-effect-level ([5]; Crlj:CD1 (ICR) mice, repeated oral administration for 5 days, assumed value): 200 mg/kg/day; toxicity findings ([5]; mouse, in vivo, po, 1000 mg/kg/day): possibilities of induction of hepatotoxicity, effects on immune organs/tissues and induction of gastrointestinal toxicity were suggested
COc1ccc(-n2nc(C3(O)CCC(C(=O)O)CC3)cc2-c2ccc(C)cc2)cc1 (stereo not drawn) [Example 64, 4-hydroxy-4-(1-(4-methoxyphenyl)-5-p-tolyl-1H-pyrazol-3-yl)-cis-cyclohexanecarboxylic acid] | 2.06 | significantly improved | – | 1.19 | Score improvement rate ([2]; dose 1 mg/kg oral, vehicle C): 57%; von Frey Total Score Observed 1 Hour after Oral Administration (mean ± standard error), Compound-administered group ([2]; dose 1 mg/kg oral, vehicle C (0.5% methyl cellulose, suspension)): 2.3 ± 0.5
COc1ccc(-c2nc(C3(O)CCC(O)CC3)oc2-c2ccc(OC)cc2)cc1 (single isomer, unassigned) [Example 67-B, 4-(4,5-Bis(4-methoxyphenyl)oxazol-2-yl)cyclohexan-cis-1,4-diol] | 12.7 | significantly improved | 0.8 ± 0.7 | 7.32 | –
COc1ccc(-n2nc(C3(O)CCC(O)CC3)c(Cl)c2-c2ccc(C)cc2)cc1 (stereo not drawn) [Example 59, 1-(4-Chloro-1-(4-methoxyphenyl)-5-(p-tolyl)-1H-pyrazol-3-yl)cyclohexan-cis-1,4-diol] | 44.6 | significantly improved | 1.7 ± 0.6 | 9.92 | Score improvement rate ([2]; dose 10 mg/kg oral, vehicle A): 66%
COc1ccc(-n2nc(C3(O)CCC(O)CC3)cc2-c2ccc(C)cc2)cc1F (stereo not drawn) [Example 30] | 3.92 | – | – | – | –
COc1ccc(-n2nc(C3(O)CCC(O)(C(F)(F)F)CC3)cc2-c2ccc(C)cc2)cc1 (stereo not drawn) [Example 62, 1-(1-(4-Methoxyphenyl)-5-(p-tolyl)-1H-pyrazol-3-yl)-4-(trifluoromethyl)cyclohexan-cis-1,4-diol] | 33.3 | – | – | 0.54 | analgesic effect 3 hours after the oral administration (von Frey test) ([2]; oral administration of Example 2-B and Example 62 in amounts of 0.3 and 1.0 mg/kg, respectively, FIG. 2, FIG. 3): a strong analgesic effect was maintained
COc1ccc(-n2nc(C3(O)CCC(O)CC3)cc2-c2ccc(C)cc2)cc1 (stereo not drawn) [Example 2-A, 1-(1-(4-Methoxyphenyl)-5-(p-tolyl)-1H-pyrazol-3-yl)cyclohexan-trans-1,4-diol] | 45.1 | – | – | 1.8 | analgesic effect 3 hours after the oral administration (von Frey test) ([2]; oral administration of 0.3 mg/kg, FIG. 1): a strong analgesic effect was maintained
